Measured values from US6878689B2, “Preventives or remedies for heart failure” (Kaken Pharmaceutical Co., Ltd., priority 2000, dated 2005).
Where a SMILES comes first, the peptide text is derived from it. [ ]: non-standard residue; d: D form. d2Nal = N[C@H](Cc1ccc2ccccc2c1)C(=O)O

Test system: papillary muscle of guinea-pig
Assay: Myocardial contractility (developed tension) in isolated, electrically driven papillary muscle of guinea-pig
Conditions: cumulative 10, 30 and 100 μM; n=5; FIG. 1
Method: [Test Example 1] Myocardial Contractility Enhancing Action of Pralmorelin in the Papillary Muscle of Guinea-Pig
The direct effect of pralmorelin on myocardial contractility was evaluated using the isolated cardiac muscle of guinea-pigs according to the standard method for evaluating myocardial contractility. • 1. Materials and Experimental Method • 1) Animal Used
Male Hartley guinea-pigs (body weight, 301-350 g; Japan SLC) were purchased. The animals were accommodated to an environment at a temperature of 23±2° C. and a humidity of 55±15% under 12-hr light/dark cycles while they were allowed to eat and drink water ad libitum until they weighed 360-480 g. Each test substance was tested on a group of five animals. • 2) Reagents Used
The test substances were pralmorelin dihydrochloride (KP-102), representatives of growth hormone secretagogues such as hexarelin, ghrelin and ibutamorelin methanesulfonate (the last being hereunder referred to as MK-0677) (which were prepared by the method described in JP 6-263737 A (kokai)), as well as a recombinant human growth hormone (Sumitomo Pharmaceutical) and amrinone (Sigma) which is a known therapeutic of acute heart failure. KP-102, hexarelin and MK-0677 were dissolved in distilled water. Ghrelin was dissolved in physiological saline. Amrinone was first dissolved in dimethyl sulfoxide and then diluted with physiological saline. The growth hormone was dissolved in a dedicated solubilizer (0.3 w/v % metacresol and 3.9 w/v % D-mannitol). None of the test substance solutions should be added in an amount exceeding 1 w/v %. All reagents other than the test substances were guaranteed products of Nacalai Tesque. • 3) Preparing Specimens of the Isolated Papillary Muscle
The guinea-pigs were stunned with a blow to the back of their head; thereafter, the carotid artery was incised and the animals were exsanguinated to death. The chest was opened, the blood vessels in the upper part of the heart were cut and the heart was removed. The heart was immediately transferred into a Krebs-Henseleit (K-H) nutrient solution (NaCl, 118.0 mM; KCl, 4.7 mM; CaCl2. 2H2O, 1.0 mM; KH2PO4, 1.2 mM; MgSO4.7H2O, 1.2 mM; NaHCO3, 25.0 mM; glucose, 11.0 mM) that had been fully aerated with 95% O2-5% CO2. The heart was fixed on a rubber-lined Petri dish with needles such that its front face was seen. The ventricular wall of the upper right ventricle (toward the atrium) was excised transversely along the atrium, then excised longitudinally along the interventricular septum so that the ventricular wall was opened to expose the right ventricular papillary muscle. Subsequently, the entire surface of the left ventricle was cut open from the aorta (down) to the apex and the anterior wall of the left ventricle was opened wide, to both right and left, and fixed to expose the papillary muscle of the left ventricle. The tricupsid or mitral valve was cut off from the ventricle and the papillary muscle was cut off at the base to prepare a specimen of papillary muscle. The base of the specimen was fixed to field stimulating electrodes in an organ bath filled with 15 mL of the nutrient solution. The tendinous cord adhering to the valve was tied up with a thread and connected to an FD pickup (TB-612T, Nihon Kohden). A resting tension of 0.5 g was loaded and the papillary muscle was driven with an electric stimulator (SEN-3201, Nihon Kohden) at a frequency of 1 Hz by pulses of 20-ms duration and at a voltage intensity about 1.2 times the threshold. After an equilibration period of about 1 hr, KP-102, hexarelin and amrinone were each applied cumulatively up to amounts of 10, 30 and 100 μM. After examination of the changes in inotropic action due to the application of the test substances, 12.5 mM of CaCl2 was added and the maximum tension that was developed by each specimen was obtained. […]

In the case of C[C@H](NC(=O)[C@@H](Cc1ccc2ccccc2c1)NC(=O)[C@@H](C)N)C(=O)N[C@@H](Cc1c[nH]c2ccccc12)C(=O)N[C@H](Cc1ccccc1)C(=O)N[C@@H](CCCCN)C(N)=O [KP-102, D-alanyl-3-(naphthalen-2-yl)-D-alanyl-L-alanyl-L-tryptophyl-D-phenylalanyl-L-lysinamide] (H-[dA][d2Nal]AW[dF]K-NH2), the “tension development (positive inotropic action) vs baseline” value is reported as “significant effect over the baseline value”.
